Results taken from patent publication US20200215074A1, “Method of Treatment of Cancer” (CIPLA LIMITED, priority 2017, published 2020).

Tests used:
[1] = tested on: PAR-4; test: In-vitro PAR-4 induction in mouse embryonic fibroblast cells (Western blot); assay type: cell-based; details: for PAR-4 secretion in the cell supernatant: 18-21 h incubation, Western blot
Experimental: (§1) Mouse embryonic fibroblast cells were harvested from exponential phase cultures. After a 24 h recovery period to allow the cells to resume exponential growth the cells were treated with M of Pyronaridine followed by further 18-21 h of incubation. […] The samples were also subjected to SDS/PAGE and Coomassie blue staining to determine albumin levels in serum from the Conditioned Medium (CM) as another loading control.
as §1, with “[…]” for “Pyronaridine”, “CM” for “Conditioned Medium (CM)”
as §1, with “fibroblast” for “fibroblast cells”, “with 25 µM” for “with M”, “of Meloquine” for “of Pyronaridine”, “the cell supernatant” for “the Conditioned Medium (CM)”
as §1, with “[…]” for “Pyronaridine”, “CM” for “Conditioned Medium (CM)”
as §1, with “fibroblast” for “fibroblast cells”, “with 25 μM” for “with M”, “of Mebendazole” for “of Pyronaridine”, “the cell supernatant” for “the Conditioned Medium (CM)”
as §1, with “fibroblast” for “fibroblast cells”, “with 25 µM” for “with M”, “of Tafenoquine” for “of Pyronaridine”, “the cell supernatant” for “the Conditioned Medium (CM)”
The experiment was conducted as per method set in an Example 1.

[2] = tested on: PAR-4; test: PAR-4 inducing activity, general statement of the inventors; assay type: cell-based, human and mouse; details: summary statement, no test details
[3] = tested on: GRP-78; test: In-vitro GRP-78 induction in human ovarian and renal cancer cell lines (Western blot); assay type: cell-based; details: 25 μM, 18-21 h
Experimental: (§2) Human ovarian cancer cell line SKOV-3 and renal cancer cell line 786-0 were harvested from exponential phase cultures. After a 24 h recovery period to allow the cells to resume exponential growth the cells were treated with 25 μM of Mefloquine followed by further 18-21 h of incubation. Induction of GRP-78 expression was checked in the cell lysate by subjecting the samples to Western blot analysis with antibodies specific for GRP-78.
as §2, with “Mebendazole” for “Mefloquine”
as §2, with “Tafenoquine” for “Mefloquine”

[4] = tested on: PAR-4; details: literature (Burikhanov et al. 2014); cited from earlier work
[5] = tested on: PAR-4; details: at micromolar levels; cited from earlier work
[6] = tested on: PAR-4; test: In-vivo PAR-4 induction in C57/BL6 mice (systemic serum PAR-4); design: species or system mouse; details: blood 24 hrs later
Experimental: Immunocompetent mice were orally administered with 10 mg/kg and 51.2 mg/kg body weight of Mefloquine or vehicle for 3 consecutive days followed by collection of blood 24 hrs later, serum separation and testing for systemic levels of PAR-4. Immunocompetent mice were orally administered with 1.5 mg/kg body weight of Narasin or vehicle for 3 consecutive days followed by collection of blood 24 hrs later, serum separation and testing for systemic levels of PAR-4.

[7] = tested on: metastatic lung tumors; details: injected in mice; literature (Zhao et al. 2011); cited from earlier work
[8] = 25 μM (25 M [sic] for Mefloquine and Tafenoquine)
[9] = SKOV-3 human ovarian cancer cell line

CCn1cc(C(=O)O)c(=O)c2cnc(N3CCNCC3)nc21 [Pipemidic Acid]
PAR-4 secretion in the cell supernatant ([1]; test concentration not given): able to induce robust PAR-4 secretion | PAR-4 inducing activity [2]: found to possess PAR-4 inducing activity

COc1cc(C)c2c(Oc3cccc(C(F)(F)F)c3)c(OC)cc(NC(C)CCCN)c2n1 (stereo not shown) [Tafenoquine]
Dose dependence of PAR-4 induction [1]: Dose dependent induction of PAR-4 | PAR-4 secretion in the cell supernatant [1, 8]: able to induce robust PAR-4 secretion | Induction of PAR-4 in cell lysate [1]: Induction of PAR-4 | GRP-78 expression in cell lysate ([3]; 786-0 renal cancer cell line): induced GRP-78 expression | GRP-78 expression in cell lysate [3, 9]: induced GRP-78 expression | PAR-4 inducing activity [2]: found to possess PAR-4 inducing activity

C[C@@H]1CN(c2c(F)c(N)c3c(=O)c(C(=O)O)cn(C4CC4)c3c2F)C[C@H](C)N1 [Sparfloxacin]
PAR-4 secretion in the cell supernatant ([1]; test concentration not given): able to induce robust PAR-4 secretion | PAR-4 inducing activity [2]: found to possess PAR-4 inducing activity

O=C(Nc1cc(Cl)cc2c1[nH]c1cnccc12)c1cccnc1 [PS-1145]
Secretion of PAR-4 from normal cells in mice [4]: can increase secretion of PAR-4

COC(=O)Nc1nc2ccc(C(=O)c3ccccc3)cc2[nH]1 [Mebendazole]
PAR-4 secretion in the cell supernatant [1, 8]: able to induce robust PAR-4 secretion | Induction of PAR-4 in cell lysate [1]: Induction of PAR-4 | GRP-78 expression in cell lysate ([3]; 786-0 renal cancer cell line): induced GRP-78 expression | GRP-78 expression in cell lysate [3, 9]: induced GRP-78 expression | PAR-4 inducing activity [2]: found to possess PAR-4 inducing activity

CC(C)N1CCN(c2ccc(OCC3COC(Cn4cncn4)(c4ccc(Cl)cc4Cl)O3)cc2)CC1 (stereo not shown) [Terconazole]
Dose dependence of PAR-4 induction [1]: in a dose dependent manner | PAR-4 secretion in the cell supernatant ([1]; test concentration not given): able to induce robust PAR-4 secretion | Induction of PAR-4 in cell lysate [1]: Induction of PAR-4 | PAR-4 inducing activity [2]: found to possess PAR-4 inducing activity

COc1ccc(-c2ccc3cc(C(=O)O)ccc3c2)cc1C12CC3CC(CC(C3)C1)C2 [Adapalene]
PAR-4 inducing activity [2]: found to possess PAR-4 inducing activity

Cc1cccc(C)c1OCC(=O)N[C@@H](Cc1ccccc1)[C@@H](O)C[C@H](Cc1ccccc1)NC(=O)[C@H](C(C)C)N1CCCNC1=O [Lopinavir]
PAR-4 secretion in the cell supernatant ([1]; test concentration not given): able to induce robust PAR-4 secretion | PAR-4 inducing activity [2]: found to possess PAR-4 inducing activity

CN(C)c1ccc2cc(-c3ccccc3F)c(N)nc2c1 [Arylquin-1]
Secretion of PAR-4 from normal cells in mice [4]: can increase secretion of PAR-4

CCn1cc(C(=O)O)c(=O)c2ccc(C)nc21 [Nalidixic Acid]
PAR-4 secretion in the cell supernatant ([1]; test concentration not given): able to induce robust PAR-4 secretion | PAR-4 inducing activity [2]: found to possess PAR-4 inducing activity

COc1ccc(C2=N[C@@H](c3ccc(Cl)cc3)[C@@H](c3ccc(Cl)cc3)N2C(=O)N2CCNC(=O)C2)c(OC(C)C)c1 [Nutlin-3a]
Secretion of PAR-4 from normal cells in mice [4]: can increase secretion of PAR-4 | PAR-4 secretion in MEF cells [5]: stimulated PAR-4 secretion

CC[C@@H](C(=O)O)[C@@H]1O[C@@H]([C@@H](C)[C@H](O)[C@H](C)C(=O)[C@H](CC)[C@H]2O[C@]3(C=C[C@@H](O)[C@]4(CC[C@@](C)([C@H]5CC[C@](O)(CC)[C@H](C)O5)O4)O3)[C@H](C)C[C@@H]2C)[C@@H](C)C[C@@H]1C [Narasin]
PAR-4 secretion in the cell supernatant ([1]; test concentration not given): able to induce robust PAR-4 secretion | Elevation of PAR-4 in mouse serum relative to vehicle ([6]; oral 1.5 mg/kg for 3 consecutive days): induced robust elevation of PAR-4 | PAR-4 inducing activity [2]: found to possess PAR-4 inducing activity

OC(c1cc(C(F)(F)F)nc2c(C(F)(F)F)cccc12)C1CCCCN1 (stereo not shown) [Mefloquine]
PAR-4 secretion in the cell supernatant [1, 8]: able to induce robust PAR-4 secretion | Elevation of PAR-4 in mouse serum relative to vehicle ([6]; oral 51.2 mg/kg for 3 consecutive days): induced robust elevation of PAR-4 | GRP-78 expression in cell lysate ([3]; 786-0 renal cancer cell line): induced GRP-78 expression | GRP-78 expression in cell lysate [3, 9]: induced GRP-78 expression | PAR-4 inducing activity [2]: found to possess PAR-4 inducing activity

COc1ccc2nc3cc(Cl)ccc3c(Nc3cc(CN4CCCC4)c(O)c(CN4CCCC4)c3)c2n1 [Pyronaridine]
Dose dependence of PAR-4 induction [1]: in a dose dependent manner | PAR-4 secretion in the cell supernatant ([1]; test concentration not given): able to induce robust PAR-4 secretion | PAR-4 inducing activity [2]: found to possess PAR-4 inducing activity

B1: recombinant PAR-4: recombinant PAR-4 protein injected in mice to elevate extracellular PAR-4 (protein, UniProt Q96IZ0 1-340, looked up)
PRKC apoptosis WT1 regulator …: MATGGYRTSSGLGGSTTDFLEEWKAKREKMRAKQNPPGPAPPGGGSSDAAGKPPAGALGTPAAAAANELNNNLPGGAPAAPAVPGPGGVNCAVGSAMLTRAAPGPRRSEDEPPAASASAAPPPQRDEEEPDGVPEKGKSSGPSARKGKGQIEKRKLREKRRSTGVVNIPAAECLDEYEDDEAGQKERKREDAITQQNTIQNEAVNLLDPGSSYLLQEPPRTVSGRYKSTTSVSEEDVSSRYSRTDRSGFPRYNRDANVSGTLVSSSTLEKKIEDLEKEVVRERQENLRLVRLMQDKEEMIGKLKEEIDLLNRDLDDIEDENEQLKQENKTLLKVVGQLTR
Effect on metastatic lung tumors [7]: cause inhibition of metastatic lung tumors
